In ChEMBL document CHEMBL1151218, “A new ursane triterpene from Monochaetum vulcanicum that inhibits DNA polymerase beta lyase” (J Nat Prod, 2004):

These molecules were tested against DNA polymerase beta (Homo sapiens, UniProt P06746) (assay: Inhibition of DNA polymerase beta lyase activity).

Compound	IC50
C[C@H]1[C@H](C)CC[C@]2(C(=O)O)CC[C@]3(C)C(=CC[C@@H]4[C@@]5(C)CC[C@H](OC(=O)/C=C/c6ccc(O)cc6)C(C)(C)[C@@H]5CC[C@]43C)[C@H]12	> 50 µM
C[C@H]1[C@H](C)CC[C@]2(C(=O)O)CC[C@]3(C)C(=CC[C@@H]4[C@@]5(C)C[C@@H](O)[C@H](O)C(C)(C)[C@@H]5CC[C@]43C)[C@H]12 [COROSOLIC ACID]	12.6 µM
CC(=O)O[C@H]1[C@H](O)C[C@]2(C)[C@H]3CC=C4[C@@H]5[C@@H](C)[C@H](C)CC[C@]5(C(=O)O)CC[C@@]4(C)[C@]3(C)CC[C@H]2C1(C)C	21.5 µM
C[C@H]1[C@H](C)CC[C@]2(C(=O)O)CC[C@]3(C)C(=CC[C@@H]4[C@@]5(C)CC[C@H](O)C(C)(C)[C@@H]5CC[C@]43C)[C@H]12 [URSOLIC ACID]	18.6 µM
CC[C@H](CC[C@@H](C)[C@H]1CC[C@H]2[C@@H]3CC=C4C[C@@H](O[C@@H]5O[C@H](CO)[C@@H](O)[C@H](O)[C@H]5O)CC[C@]4(C)[C@H]3CC[C@]12C)C(C)C [SITOGLUSIDE]	26.5 µM
